Source: US7759486B2, “2,4,5-Trisubstituted pyrimidine compounds” (GlaxoSmithKline LLC, priority 2000, dated 2010)

melting point	Compound
127 to 128 °C	CSCCCOc1nc(-c2ccc(F)cc2C)c2ccc(=O)n(-c3c(F)cccc3F)c2n1 [Example 127, 8-(2,6-Difluorophenyl)-4-(4-fluoro-2-methylphenyl)-2-(3-methylsulfanylpropoxy)-8H-pyrido[2,3-d]pyrimidin-7-one]
160 to 162 °C	Cc1cc(F)ccc1-c1nc(OCCCS(C)(=O)=O)nc2c1ccc(=O)n2-c1c(F)cccc1F [Example 128, 8-(2,6-Difluorophenyl)-4-(4-fluoro-2-methylphenyl)-2-(3-methanesulfonylpropoxy)-8H-pyrido[2,3-d]pyrimidin-7-one]
96 to 99 °C	Cc1cc(F)ccc1-c1nc(OCCN)nc2c1ccc(=O)n2-c1c(F)cccc1F [Example 131, 8-(2,6-Difluorophenyl)-4-(4-fluoro-2-methylphenyl)-2-(2-aminoethoxy)-8H-pyrido[2,3-d]pyrimidin-7-one]
75 to 79 °C	CC(=O)NCCOc1nc(-c2ccc(F)cc2C)c2ccc(=O)n(-c3c(F)cccc3F)c2n1 [Example 132, 8-(2,6-Difluorophenyl)-4-(4-fluoro-2-methylphenyl)-2-(2-acetylaminoethoxy)-8H-pyrido[2,3-d]pyrimidin-7-one]
77 to 81 °C	Cc1cc(F)ccc1-c1nc(OCC(CO)CO)nc2c1ccc(=O)n2-c1c(F)cccc1F [Example 133, 8-(2,6-Difluorophenyl)-4-(4-fluoro-2-methylphenyl)-2-(3-hydroxy-2-hydroxymethylpropoxy)-8H-pyrido[2,3-d]pyrimidin-7-one]
95 to 99 °C	Cc1cc(F)ccc1-c1nc(OCCNS(C)(=O)=O)nc2c1ccc(=O)n2-c1c(F)cccc1F [Example 134, 8-(2,6-Difluorophenyl)-4-(4-fluoro-2-methylphenyl)-2-(2-methanesulfonyl-aminoethoxy)-8H-pyrido[2,3-d]pyrimidin-7-one]
89 to 92 °C	Cc1cc(F)ccc1-c1nc(OCCN(C)S(C)(=O)=O)nc2c1ccc(=O)n2-c1c(F)cccc1F [Example 135, 8-(2,6-Difluorophenyl)-4-(4-fluoro-2-methylphenyl)-2-(2-N-methanesulfonyl-N-methylaminoethoxy)-8H-pyrido[2,3-d]pyrimidin-7-one]
96 to 101 °C	Cc1cc(F)ccc1-c1nc(N[C@@H](C)CO)nc2c1ccc(=O)n2-c1c(F)cccc1F [Example 137, (S)-4-(4-fluoro-2-methylphenyl)-8-(2,6-difluorophenyl)-2-[(1-hydroxyprop-2-yl)amino]-8H-pyrido[2,3-d]pyrimidin-7-one]
90 to 95 °C	Cc1cc(F)ccc1-c1nc(N[C@H](C)CO)nc2c1ccc(=O)n2-c1c(F)cccc1F [Example 138, (R)-4-(4-fluoro-2-methylphenyl)-8-(2,6-difluorophenyl)-2-[(1-hydroxyprop-2-yl)amino]-8H-pyrido[2,3-d]pyrimidin-7-one]
158 to 160 °C	Cc1cc(F)ccc1-c1nc(NC(C)(CO)CO)nc2c1ccc(=O)n2-c1c(F)cccc1F [Example 154, 2-(1-hydroxymethyl-1-methyl-2-hydroxyethylamino)-4-(4-fluoro-2-methylphenyl)-8-(2,6-difluorophenyl)-8H-pyrido[2,3-d]pyrimidin-7-one]

More lines, now with the values behind:

Compound	melting point
Cc1cc(F)ccc1-c1nc(O)nc2c1ccc(=O)n2-c1ccccc1F (hydrate or solvate) [Example 144, 2-Hydroxy-4-(4-fluoro-2-methylphenyl)-8-(2-fluorophenyl)-8H-pyrido[2,3-d]pyrimidin-7-one]	> 280 °C
Cc1cc(F)ccc1-c1nc(OCCNC(=O)OC(C)(C)C)nc2c1ccc(=O)n2-c1c(F)cccc1F [Example 130, 8-(2,6-Difluorophenyl)-4-(4-fluoro-2-methylphenyl)-2-[2-(tert-butoxycarbonylamino)ethoxy]-8H-pyrido[2,3-d]pyrimidin-7-one]	103 to 105 °C
Cc1cc(F)ccc1-c1nc(NCCO)nc2c1ccc(=O)n2-c1ccccc1F [Example 136, 4-(4-fluoro-2-methylphenyl)-8-(2-fluorophenyl)-2-(2-hydroxylethylamino)-5H-pyrido[2,3-d]pyrimidin-7-one]	120 to 124 °C
Cc1cc(F)ccc1-c1nc(NC(C)(C)CO)nc2c1ccc(=O)n2-c1c(F)cccc1F [Example 139, 4-(4-fluoro-2-methylphenyl)-8-(2,6-difluorophenyl)-2-(1,1-dimethyl-2-hydroxyethylamino)-8H-pyrido[2,3-d]pyrimidin-7-one]	99 to 105 °C
CCNc1nc(-c2ccc(F)cc2C)c2ccc(=O)n(-c3ccccc3F)c2n1 [Example 140, 2-Ethylamino-4-(4-fluoro-2-methylphenyl)-8-(2-fluorophenyl)-8H-pyrido[2,3-d]pyrimidin-7-one]	176 to 177 °C
Cc1cc(F)ccc1-c1nc(N[C@@H](C)CO)nc2c1ccc(=O)n2-c1ccccc1F [Example 141, (S)-4-(4-fluoro-2-methylphenyl)-8-(2-fluorophenyl)-2-[(1-hydroxyprop-2-yl)amino]-8H-pyrido[2,3-d]pyrimidin-7-one]	114 to 120 °C
Cc1cc(F)ccc1-c1nc(N[C@H](C)CO)nc2c1ccc(=O)n2-c1ccccc1F [Example 142, (R)-4-(4-fluoro-2-methylphenyl)-8-(2-fluorophenyl)-2-[(1-hydroxyprop-2-yl)amino]-8H-pyrido[2,3-d]pyrimidin-7-one]	116 to 122 °C
Cc1cc(F)ccc1-c1nc(NC(C)(C)CO)nc2c1ccc(=O)n2-c1ccccc1F [Example 143, 2-(1,1-dimethyl-2-hydroxyethylamino)-4-(4-fluoro-2-methylphenyl)-8-(2 fluorophenyl)-8H-pyrido[2,3-d]pyrimidin-7-one]	106 to 112 °C
Cc1cc(F)ccc1-c1nc(NC2CCCCC2)nc2c1ccc(=O)n2-c1ccccc1F [Example 145, 2-Cyclohexylamino-4-(4-fluoro-2-methylphenyl)-8-(2-fluorophenyl)-5H-pyrido[2,3-d]pyrimidin-7-one]	181 to 182 °C
Cc1cc(F)ccc1-c1nc(NC2CCOCC2)nc2c1ccc(=O)n2-c1ccccc1F [Example 146, 2-(Tetrahydropyran-4-ylamino)-4-(4-fluoro-2-methylphenyl)-8-(2-fluorophenyl)-8H-pyrido[2,3-d]pyrimidin-7-one]	211 to 212 °C
CCNc1nc(-c2ccc(F)cc2C)c2ccc(=O)n(-c3c(F)cccc3F)c2n1 [Example 147, 2-Ethylamino-4-(4-fluoro-2-methylphenyl)-8-(2,6-difluorophenyl)-8H-pyrido[2,3-d]pyrimidin-7-one]	195 to 196 °C
Cc1cc(F)ccc1-c1nc(NC2CCCCC2)nc2c1ccc(=O)n2-c1c(F)cccc1F [Example 148, 2-Cyclohexylamino-4-(4-fluoro-2-methylphenyl)-8-(2,6-difluorophenyl)-8H-pyrido[2,3-d]pyrimidin-7-one]	218 to 219 °C
Cc1cc(F)ccc1-c1nc(NC2CCOCC2)nc2c1ccc(=O)n2-c1c(F)cccc1F [Example 149, 2-(Tetrahydropyran-4-ylamino)-4-(4-fluoro-2-methylphenyl)-8-(2,6-difluorophenyl)-8H-pyrido[2,3-d]pyrimidin-7-one]	231 to 232 °C
Cc1cc(F)ccc1-c1nc(NCC(F)(F)F)nc2c1ccc(=O)n2-c1ccccc1F [Example 150, 2-(2,2,2-Trifluoroethylamino)-4-(4-fluoro-2-methylphenyl)-8-(2-fluorophenyl)-8H-pyrido[2,3-d]pyrimidin-7-one]	187 to 188 °C
Cc1cc(F)ccc1-c1nc(N[C@H]2CC[C@H](O)CC2)nc2c1ccc(=O)n2-c1ccccc1F [Example 151, trans-2-(4-Hydroxycyclohexylamino)-4-(4-fluoro-2-methylphenyl)-8-(2-fluorophenyl)-8H-pyrido[2,3-d]pyrimidin-7-one]	148 to 151 °C
Cc1cc(F)ccc1-c1nc(NC(C)(CO)CO)nc2c1ccc(=O)n2-c1ccccc1F [Example 152, 2-(1-hydroxymethyl-1-methyl-2-hydroxyethylamino)-4-(4-fluoro-2-methylphenyl)-8-(2-fluorophenyl)-8H-pyrido[2,3-d]pyrimidin-7-one]	160 to 162 °C
Cc1cc(F)ccc1-c1nc(NCC(F)(F)F)nc2c1ccc(=O)n2-c1c(F)cccc1F [Example 153, 2-(2,2,2-Trifluoroethylamino)-4-(4-fluoro-2-methylphenyl)-8-(2,6-difluorophenyl)-8H-pyrido[2,3-d]pyrimidin-7-one]	195 to 196 °C
Cc1cc(F)ccc1-c1nc(N[C@H]2CC[C@H](O)CC2)nc2c1ccc(=O)n2-c1c(F)cccc1F [Example 155, trans-2-(4-Hydroxycyclohexylamino)-4-(4-fluoro-2-methylphenyl)-8-(2,6-difluorophenyl)-8H-pyrido[2,3-d]pyrimidin-7-one]	158 to 160 °C
CCOc1nc(-c2ccc(F)cc2C)c2ccc(=O)n(-c3ccccc3F)c2n1 [Example 156, 2-Ethoxy-4-(4-fluoro-2-methylphenyl)-8-(2-fluorophenyl)-8H-pyrido[2,3-d]pyrimidin-7-one]	137 to 139 °C
CCNC(=O)NCCNc1nc(-c2ccc(F)cc2C)c2ccc(=O)n(-c3c(F)cccc3F)c2n1 [Example 158, 1-[2-[8-(2,6-Difluorophenyl)-4-(4-fluoro-2-methylphenyl)-7-oxo-7,8-dihydro-pyrido[2,3-d]pyrimidin-2-ylamino]ethyl]-3-ethylurea]	130 to 133 °C
Cc1cc(F)ccc1-c1nc(NCCNC(=O)Nc2ccccc2)nc2c1ccc(=O)n2-c1c(F)cccc1F [Example 159]	142 to 148 °C
Cc1cc(F)ccc1-c1nc(NCCNC(=O)NC2CCCCC2)nc2c1ccc(=O)n2-c1c(F)cccc1F [Example 160, 1-[2-[8-(2,6-Difluorophenyl)-4-(4-fluoro-2-methylphenyl)-7-oxo-7,8-dihydro-pyrido[2,3-d]pyrimidin-2-ylamino]ethyl]-3-cyclohexylurea]	178 to 183 °C
Cc1cc(F)ccc1-c1nc(NCCNC(=O)Nc2cccc(F)c2)nc2c1ccc(=O)n2-c1c(F)cccc1F [Example 161, 1-[2-[8-(2,6-Difluorophenyl)-4-(4-fluoro-2-methylphenyl)-7-oxo-7,8-dihydro-pyrido[2,3-d]pyrimidin-2-ylamino]ethyl]-3-[3-fluorophenyl]urea]	131 to 144 °C
